Experimental findings from patent publication US10150762B2, “Trifluoromethyl alcohols as modulators of RORγt” (Janssen Pharmaceutica NV, priority 2014, dated 2018) are described below.

One may read the Kd as a measure of binding affinity in units of concentration. A word on the IC50: it is the point on the concentration scale where inhibition reaches its midpoint.

Test [1] addresses wild type human RORγt ligand binding domain (RORγt LBD) (Homo sapiens (Human), UniProt P51449). Conditions: read-out: ThermoFluor® Assay, Kd. As for the experimental part:
This approach is applicable to a wide variety of systems, and rigorous in theoretical interpretation through quantitation of equilibrium binding constants (KD).
The shift in the melting point described as a ΔTm is proportional to the concentration and affinity of the ligand.
RORγt ThermoFluor® Assay Construct
ThermoFluor® experiments were carried out using instruments owned by Janssen Research and Discovery, L.L.C. through its acquisition of 3-Dimensional Pharmaceuticals, Inc. 1,8-ANS (Invitrogen) was used as a fluorescent dye. Protein and compound solutions are dispensed into black 384-well polypropylene PCR microplates (Abgene) and overlayed with silicone oil (1 μL, Fluka, type DC 200) to prevent evaporation.
Fluorescence was measured by continuous illumination with UV light (Hamamatsu LC6) supplied via fiber optic and filtered through a band-pass filter (380-400 nm; >6 OD cutoff). Fluorescence emission of the entire 384-well plate was detected by measuring light intensity using a CCD camera (Sensys, Roper Scientific) filtered to detect 500±25 nm, resulting in simultaneous and independent readings of all 384 wells. Images were collected at each temperature, and the sum of the pixel intensity in a given area of the assay plate was recorded versus temperature. Reference wells contained RORγt without compounds, and the assay conditions were as follows: • 0.065 mg/mL RORγt • 60 μM 1,8-ANS • 100 mM Hepes, pH 7.0 • 10 mM NaCl • 2.5 mM GSH • 0.002% Tween-20

The target of test [2] is T1, full-length human RORγt (Homo sapiens (Human), UniProt P51449). Conditions: for IC50: read-out: RORγt (FL) Reporter Assay B or C, IC50, HEK293T cells, Conditions B or C.
Text: (§1) RORγt (full-length human) Reporter Assay:
All three provide similar data and can be used interchangeably.
Test [3] addresses T1, full-length human RORγt. Type of test: cell-based. Conditions: for IC50: HEK293T cells, Conditions A, read-out: RORγt (FL) Reporter Assay A, IC50. Background: In a reporter assay the amount or activity of a reporter protein is the signal.
Experimental: as §1
Luminescence was measured using a BMG LUMIstar OPTIMA plate reader, after addition of 75 μL/well firefly luciferase buffer, followed by 75 μL/well Renilla luciferase buffer.
Test [4] relates to IL-17 production by CD4 T cells. The test can be described thus: Human Th17 Assay. Format: cell-based. The following applies: 72 h, read-out: Human Th17 Assay, IC50. The text has this: Human Th17 Assay The human Th17 assay tests the effect of RORγt modulatory compounds on IL-17 production by CD4 T cells under conditions which favor Th17 differentiation. Total CD4+ T cells were isolated from the peripheral blood mononuclear cells (PBMC) of healthy donors using a CD4+ T cell isolation kit II, following the manufacturer's instructions (Miltenyi Biotec). […] The final concentrations of antibodies and cytokines (R&D Systems) in differentiation medium were: 3×10^6/mL anti-CD3/CD28 beads (prepared using human T cell activation/expansion kit, Miltenyi Biotec), 10 μg/mL anti-IL4, 10 μg/mL anti-IFNγ, 10 ng/mL IL113, 10 ng/mL IL23, 50 ng/mL IL6, 3 ng/mL TGFβ and 20 U/mL IL2. Cells were cultured at 37° C. and 5% CO2 for 3 days. Supernatants were collected and the accumulated IL-17 in culture was measured by using MULTI-SPOT® Cytokine Plate following manufacture's instruction (Meso Scale Discovery). The plate was read using Sector Imager 6000, and IL-17 concentration was extrapolated from the standard curve. The IC50s were determined by GraphPad.

The mark [5] stands for this setting: *** 0.67 μM compound concentration.

Like-named read-outs stand apart in the source and are kept apart here. Marks after values point to notes of the source that are not given here.

T1 sequence (P51449 other isoform, or with tags, fused parts or gaps): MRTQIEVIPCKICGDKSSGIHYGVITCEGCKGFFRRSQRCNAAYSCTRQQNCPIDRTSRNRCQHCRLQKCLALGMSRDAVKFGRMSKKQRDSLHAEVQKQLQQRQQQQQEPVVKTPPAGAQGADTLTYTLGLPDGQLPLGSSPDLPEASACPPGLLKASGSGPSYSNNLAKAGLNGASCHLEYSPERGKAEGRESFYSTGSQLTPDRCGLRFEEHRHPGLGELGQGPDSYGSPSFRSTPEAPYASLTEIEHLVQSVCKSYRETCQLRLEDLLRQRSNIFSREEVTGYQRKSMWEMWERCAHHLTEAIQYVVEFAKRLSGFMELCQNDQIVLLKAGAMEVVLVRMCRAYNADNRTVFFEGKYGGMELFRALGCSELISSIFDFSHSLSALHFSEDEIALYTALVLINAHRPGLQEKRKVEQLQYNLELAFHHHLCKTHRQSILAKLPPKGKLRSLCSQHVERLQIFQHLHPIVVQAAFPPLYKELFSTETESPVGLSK
wild type human RORγt ligand binding domain (RORγt LBD), sequence (P51449 other isoform, or with tags, fused parts or gaps): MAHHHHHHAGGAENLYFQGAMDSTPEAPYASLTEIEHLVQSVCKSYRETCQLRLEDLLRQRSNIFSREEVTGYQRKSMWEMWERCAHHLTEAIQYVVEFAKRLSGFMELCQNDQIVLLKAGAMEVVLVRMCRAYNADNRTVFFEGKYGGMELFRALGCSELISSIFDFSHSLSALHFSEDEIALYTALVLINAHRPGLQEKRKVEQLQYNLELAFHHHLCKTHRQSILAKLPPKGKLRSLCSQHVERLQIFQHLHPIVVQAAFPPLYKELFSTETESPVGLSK

For `C[C@H]1CCCN1C(=O)c1nc(C(=O)NCC(C)(C)O)sc1-c1ccc(C(O)(C(F)(F)F)C(F)(F)F)cc1Cl` [Example 15/10, (S)-5-(2-Chloro-4-(1,1,1,3,3,3-hexafluoro-2-hydroxypropan-2-yl)phenyl)-N-(2-hydroxy-2-methylpropyl)-4-(2-methylpyrrolidine-1-carbonyl)thiazole-2-carboxamide], the dissociation constant Kd in test [1] was 0.26 nM. For the same compound, the “RORγt (FL) Reporter Assay B or C, % inhibition” value on full-length human RORγt [2] (* 3 μM compound concentration) is listed as 97* %. For the same compound, at full-length human RORγt [2], the half-maximal inhibitory concentration (IC50) was determined as 7.9 nM.
As to `C[C@H]1CCCN1C(=O)c1nc(C(=O)NCC(C)(C)O)sc1-c1ccc(C(O)(C(F)(F)F)C(F)(F)F)c(Cl)c1Cl` [Example 2/8, (S)-5-(2,3-Dichloro-4-(1,1,1,3,3,3-hexafluoro-2-hydroxypropan-2-yl)phenyl)-N-(2-hydroxy-2-methylpropyl)-4-(2-methylpyrrolidine-1-carbonyl)thiazole-2-carboxamide], on full-length human RORγt [3] (** 2 μM compound concentration), the “RORγt (FL) Reporter Assay A, % inhibition” value is reported as 103** %. Besides, in test [4], the IC50 was 17 nM. The “RORγt (FL) Reporter Assay B or C, % inhibition” value on full-length human RORγt [2] (** 2 μM compound concentration) was 108** %.
Regarding `Cc1cc(C(O)(C(F)(F)F)C(F)(F)F)ccc1-c1sc(C(=O)NCC(C)(C)O)nc1C(=O)N1CCC[C@@H]1C` [Example 19, (S)-5-(4-(1,1,1,3,3,3-Hexafluoro-2-hydroxypropan-2-yl)-2-methylphenyl)-N-(2-hydroxy-2-methylpropyl)-4-(2-methylpyrrolidine-1-carbonyl)thiazole-2-carboxamide], the IC50 in test [4] (IL-17 in supernatant, 3 days culture) was found to be 55 nM.
For `C[C@H]1CC(F)(F)CN1C(=O)c1nc(C(=O)N2C[C@H](O)C[C@H](O)C2)sc1-c1ccc(C(O)(C(F)(F)F)C(F)(F)F)cc1C(F)(F)F` [Example 9/1, ((S)-4,4-Difluoro-2-methylpyrrolidin-1-yl)(2-((3R,5S)-3,5-dihydroxypiperidine-1-carbonyl)-5-(4-(1,1,1,3,3,3-hexafluoro-2-hydroxypropan-2-yl)-2-(trifluoromethyl)phenyl)thiazol-4-yl)methanone], the half-maximal inhibitory concentration (IC50) in test [4] stood at 13 nM.
As to `C[C@H]1C[C@@H](F)CCN1C(=O)c1nc(C(=O)NCC(C)(C)O)sc1-c1ccc(C(O)(C(F)(F)F)C(F)(F)F)c(Cl)c1Cl` [Example 2/1, 5-(2,3-Dichloro-4-(1,1,1,3,3,3-hexafluoro-2-hydroxypropan-2-yl)phenyl)-4-((2S,4S)-4-fluoro-2-methylpiperidine-1-carbonyl)-N-(2-hydroxy-2-methylpropyl)thiazole-2-carboxamide], the Kd in test [1] came out at 0.16 nM. Also, the “RORγt (FL) Reporter Assay A, % inhibition” value on full-length human RORγt [3] (** 2 μM compound concentration) is listed as 103** %. For the same compound, the IC50 at full-length human RORγt [3] came out at 14 nM.
In the case of `Cc1cc(C(O)(C(F)(F)F)C(F)(F)F)ccc1-c1sc(C(=O)NCC(C)(C)O)nc1C(=O)N1CCCC[C@@H]1C` [Example 21/2, (S)-5-(4-(1,1,1,3,3,3-Hexafluoro-2-hydroxypropan-2-yl)-2-methylphenyl)-N-(2-hydroxy-2-methylpropyl)-4-(2-methylpiperidine-1-carbonyl)thiazole-2-carboxamide], the Kd in test [1] was determined as 0.21 nM. For the same compound, on full-length human RORγt [2] (* 3 μM compound concentration), the “RORγt (FL) Reporter Assay B or C, % inhibition” value is reported as 101* %. Moreover, the concentration for half-maximal inhibition (IC50) on full-length human RORγt [2] worked out at 3.9 nM.
For `O=C(NC1CS(=O)(=O)C1)c1nc(C(=O)N2CCC(F)CC2)c(-c2ccc(C(O)(C(F)(F)F)C(F)(F)F)c(Cl)c2Cl)s1` [Example 6/1, 5-(2,3-Dichloro-4-(1,1,1,3,3,3-hexafluoro-2-hydroxypropan-2-yl)phenyl)-N-(1,1-dioxidothietan-3-yl)-4-(4-fluoropiperidine-1-carbonyl)thiazole-2-carboxamide], in test [4], the half-maximal inhibitory concentration (IC50) turned out to be 42 nM.
As to `CC(C)(O)CNC(=O)c1nc(C(=O)N2CCC(F)CC2)c(-c2ccc(C(O)(C(F)(F)F)C(F)(F)F)c(Cl)c2Cl)s1` [Example 2/10, 5-(2,3-Dichloro-4-(1,1,1,3,3,3-hexafluoro-2-hydroxypropan-2-yl)phenyl)-4-(4-fluoropiperidine-1-carbonyl)-N-(2-hydroxy-2-methylpropyl)thiazole-2-carboxamide], the Kd in test [1] came out at 13 nM. Besides, on full-length human RORγt [3] (** 2 μM compound concentration), the “RORγt (FL) Reporter Assay A, % inhibition” value is 105** %. The IC50 at full-length human RORγt [3] amounted to 25 nM.
Turning to `CN(C(=O)c1nc(C(=O)NCC(C)(C)O)sc1-c1ccc(C(O)(C(F)(F)F)C(F)(F)F)c(Cl)c1Cl)C1CCC1` [Example 2/13, N^4—Cyclobutyl-5-(2,3-dichloro-4-(1,1,1,3,3,3-hexafluoro-2-hydroxypropan-2-yl)phenyl)-N^Z-(2-hydroxy-2-methylpropyl)-N^4-methylthiazole-2,4-dicarboxamide], the dissociation constant Kd in test [1] was 0.43 nM. Further, the “RORγt (FL) Reporter Assay A, % inhibition” value on full-length human RORγt [3] (setting [5]) is reported as 103*** %. For the same compound, the half-maximal inhibitory concentration (IC50) at full-length human RORγt [3] turned out to be 10 nM.
Taken in the same sequence, the figures for `CCN(C(=O)c1nc(C(=O)NCC(C)(C)O)sc1-c1ccc(C(O)(C(F)(F)F)C(F)(F)F)c(Cl)c1Cl)C1CCC1` [Example 2/15, N^4—Cyclobutyl-5-(2,3-dichloro-4-(1,1,1,3,3,3-hexafluoro-2-hydroxypropan-2-yl)phenyl)-N^4-ethyl-N2-(2-hydroxy-2-methylpropyl)thiazole-2,4-dicarboxamide] were 0.18 nM, 106*** % and 5 nM.
`CCN(CC)C(=O)c1nc(C(=O)N2C[C@H](O)C[C@H](O)C2)sc1-c1ccc(C(O)(C(F)(F)F)C(F)(F)F)c(Cl)c1Cl` [Example 3/4]: in test [1], the Kd amounted to 10 nM. In addition, at full-length human RORγt [3] (** 2 μM compound concentration), the “RORγt (FL) Reporter Assay A, % inhibition” value was 100** %. Also, the 50% inhibitory concentration (IC50) on full-length human RORγt [3] amounted to 14 nM.
For `C[C@H]1CC(F)(F)CN1C(=O)c1nc(C(=O)NCC(C)(C)O)sc1-c1ccc(C(O)(C(F)(F)F)C(F)(F)F)c(Cl)c1Cl` [Example 2/2, (S)-5-(2,3-Dichloro-4-(1,1,1,3,3,3-hexafluoro-2-hydroxypropan-2-yl)phenyl)-4-(4,4-difluoro-2-methylpyrrolidine-1-carbonyl)-N-(2-hydroxy-2-methylpropyl)thiazole-2-carboxamide], the dissociation constant (Kd) in test [1] amounted to 0.22 nM. The “RORγt (FL) Reporter Assay A, % inhibition” value at full-length human RORγt [3] (setting [5]) is 101*** %. Besides, the half-maximal inhibitory concentration (IC50) on full-length human RORγt [3] worked out at 10 nM.
In the case of `C[C@@H]1CCCN1C(=O)c1nc(C(=O)NCC(C)(C)O)sc1-c1ccc(C(O)(C(F)(F)F)C(F)(F)F)c(Cl)c1Cl` [Example 2/16, (R)-5-(2,3-dichloro-4-(1,1,1,3,3,3-hexafluoro-2-hydroxypropan-2-yl)phenyl)-N-(2-hydroxy-2-methylpropyl)-4-(2-methylpyrrolidine-1-carbonyl)thiazole-2-carboxamide], the “RORγt (FL) Reporter Assay A, % inhibition” value at full-length human RORγt [3] (** 2 μM compound concentration) is 86** %.
As for `C[C@H]1CCCN1C(=O)c1nc(C(=O)NCC(C)(C)O)sc1-c1ccc(C(O)(C(F)(F)F)C(F)(F)F)cc1C(F)F` [Example 15, (S)-5-(2-(Difluoromethyl)-4-(1,1,1,3-hexafluoro-2-hydroxypropan-2-yl)phenyl)-N-(2-hydroxy-2-methylpropyl)-4-(2-methylpyrrolidine-1-carbonyl)thiazole-2-carboxamide], the 50% inhibitory concentration (IC50) in test [4] was 47 nM.
